Data set [1] addresses T1, cellular thioredoxin reductase (Homo sapiens, UniProt Q16881).
T1 sequence (Q16881 1-649): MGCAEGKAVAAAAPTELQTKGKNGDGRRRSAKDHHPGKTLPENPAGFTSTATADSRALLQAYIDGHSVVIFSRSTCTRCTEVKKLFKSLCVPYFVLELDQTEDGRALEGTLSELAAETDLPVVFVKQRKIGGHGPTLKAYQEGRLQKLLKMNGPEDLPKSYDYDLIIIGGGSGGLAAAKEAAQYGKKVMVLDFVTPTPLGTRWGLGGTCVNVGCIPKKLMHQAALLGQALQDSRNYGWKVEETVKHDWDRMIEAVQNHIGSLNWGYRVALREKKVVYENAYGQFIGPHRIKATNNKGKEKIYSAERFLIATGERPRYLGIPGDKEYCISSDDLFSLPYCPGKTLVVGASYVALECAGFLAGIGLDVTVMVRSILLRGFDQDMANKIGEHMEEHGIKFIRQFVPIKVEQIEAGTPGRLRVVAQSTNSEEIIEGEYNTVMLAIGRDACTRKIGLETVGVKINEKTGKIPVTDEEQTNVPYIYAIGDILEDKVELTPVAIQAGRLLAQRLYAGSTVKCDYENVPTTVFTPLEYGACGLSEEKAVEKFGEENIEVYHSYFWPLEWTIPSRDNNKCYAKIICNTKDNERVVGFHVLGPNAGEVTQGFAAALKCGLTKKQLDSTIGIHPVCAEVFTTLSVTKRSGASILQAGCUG
The data set can be described thus: Inhibition of cellular thioredoxin reductase in MCF-7 cells grown in 1 μM Se. The class given is cell-based. The protocol: FIG. 3. Inhibition of cellular thioredoxin reductase by PX-916. MCF-7 human breast cancer cells grown in medium containing 1 μM Se for 7 days were treated with PX-916 and total cellular thioredoxin reductase activity measured. A. Time course of the inhibition of the thioredoxin reductase on exposure to 1 μM PX-916. […] In both cases values are the mean of 3 separate determinations and bars are S.E. P≦0.04 or **p≦0.01. C. Inhibition of MCF-7 tumor thioredoxin reductase by PX-916. MCF-7 human breast cancer xenografts were grown in female scid mice implanted with 17-β-estradiol 60 day slow-release pellets until they were ˜300 mm^3. The mice were administered a single dose of PX-916 of 25 mg/kg i.v. and tumors harvested at various times. Thioredoxin reductase activity was measured in tumor homogenates. Values are the mean of 3 mice at each time point and bars are SE. **p<0.01 compared to pretreatment value.
Cell growth inhibition of MCF-7 human breast cancer cells by palmarumycin, PX-916 and PX-960 occurred at similar concentration of 1 to 3 μM (Table 2). MCF-7 human breast cancer cells were grown in medium containing 1 μM selenium (Se) for 7 days which increased cellular thioredoxin reductase activity by about 5 fold as previously reported. […] Thus, inhibition of purified human TR, MCF-7 cellular TR and cell growth inhibition of MCF-7 cells by PX-916 occurred at about the same concentrations.

Data set [2] in a line: pH dependent stability in water / 0.1M sodium phosphate buffer. The class given is physicochemical. The procedure: PX-916 was stable as a stock solution in ethanol at room temperature with a half life of >5 days. […] Therefore, for in vitro studies PX-916 was used as a stock solution in ethanol, and for in vivo studies made fresh in pH 4.0 buffer vehicle.
Further palmarumycin analogs were synthesized and tested. The following analogs were synthesized: eee269-II, eee86-III, eee263-II and eee273-II. The stability of the analogs was measured in various solutions.

The test system of data set [3] is MCF-7 human breast cancer xenografts. In words: Antitumor activity, MCF-7 breast cancer xenograft. The class given is in vivo, mouse. The procedure:
FIG. 4. Antitumor activity of PX-916. A. Female beige nude mice were inoculated subcutaneously (s.c.) with 10^7 A-673 rhabdomyosarcoma cells. When tumors were 100 mm^3 on day 8 (arrow) dosing was begun with (∘) vehicle alone; (▴) PX-916 10 mg/kg intraperitoneally (i.p.) daily for 4 doses. B. Female scid mice were inoculated s.c. with 10^7 SHP-77 human small cell lung cancer cells. When tumors were 130 mm^3 on day 17 (arrow) dosing was begun with (∘) vehicle alone; (▪) PX-916 10 mg/kg i.v. daily for 8 doses; (▴) PX-916 25 mg/kg i.v. daily for 5 doses. C. Female scid mice implanted 1 day previously with a 17-β-estradiol 60 day slow release pellet were inoculated s.c. with 10^7 MCF-7 human breast cancer cells. […] In both A and B values are the mean of 8 mice per group and bars are SE.
(§1) A single intravenous (i.v.) dose of PX-916 of 25 mg/kg inhibited MCF-7 human tumor xenograft TR up to about 60% at 24 hr and the inhibition was maintained for at least 48 hr (FIG. 3C). […] In this study 3 of eight nice had no histologically detectable tumor when the study was terminated on day 42.

Data set [4] relates to SHP-77 human small cell lung cancer. In words: Antitumor activity, SHP-77 small cell lung cancer xenograft. The class given is in vivo, mouse. The protocol: FIG. 4. Antitumor activity of PX-916. A. Female beige nude mice were inoculated subcutaneously (s.c.) with 10^7 A-673 rhabdomyosarcoma cells. When tumors were 100 mm^3 on day 8 (arrow) dosing was begun with (∘) vehicle alone; (▴) PX-916 10 mg/kg intraperitoneally (i.p.) daily for 4 doses. B. Female scid mice were inoculated s.c. with 10^7 SHP-77 human small cell lung cancer cells. When tumors were 130 mm^3 on day 17 (arrow) dosing was begun with (∘) vehicle alone; (▪) PX-916 10 mg/kg i.v. daily for 8 doses; (▴) PX-916 25 mg/kg i.v. daily for 5 doses. C. Female scid mice implanted 1 day previously with a 17-β-estradiol 60 day slow release pellet were inoculated s.c. with 10^7 MCF-7 human breast cancer cells. When tumors were 180 mm^3 on day 8 (arrow) dosing was begun with (∘) vehicle alone; (⋄) PX-916 27.5 mg/kg i.v. daily for 5 doses. In both A and B values are the mean of 8 mice per group and bars are SE.
as §1

Where [5] appears, read: 27.5 mg/kg i.v. every other day for 5 doses.
[6] abbreviates: 10 mg/kg i.v. daily for 8 doses.
Where [7] appears, read: 25 mg/kg i.v. daily for 5 doses.

Molecules are shown by their SMILES. Read-outs that look alike come from different tables or passages of the source. A value given as a limit tells only on which side of the number the result lay.

The results in this text go back to patent publication US20120226031A1, “PALMARUMYCIN BASED INHIBITORS OF THIOREDOXIN AND METHODS OF USING SAME” (ARIZONA BOARD OF REGENTS, ACTING ON BEHALF OF THE …, priority 2005, published 2012).

On to `NCC(=O)Oc1ccc2c3c(cccc13)OC1(C=CC(=O)c3c(O)cccc31)O2` (stereo not drawn) [PX-916, O-glycyl naphthoquinone spiroketal], for which, in data set [1] (MCF-7 cells exposed to 1 μM), the “time of maximum inhibition of cellular TR” value turned out to be 24 h. Also, the “concentration of maximum inhibition of cellular TR” value in data set [1] (MCF-7 cells, 17 hours exposure) came to 0.5 µM. Further, the half-life in data set [2] (0.1M sodium phosphate buffer, pH 4.0, read-out: half life (converted)) was 37 h; in data set [2] (0.1M sodium phosphate buffer, pH 7.0, read-out: half life (converted)), 1 h; in data set [2] (0.1M sodium phosphate buffer, pH 10.0, read-out: half life (converted)), < 1 h; in data set [2] (water, pH 4, room temperature, pH4, read-out: t1/2 in water (converted)), 37 h; in data set [2] (water, pH 7 and above, read-out: t1/2 in water (converted)), < 1 h. In addition, the “half life of conversion to PX-960” value in data set [2] (physiological pH) is 1 h. Moreover, the tumor growth inhibition in data set [3] (27.5 mg/kg i.v. daily for 5 doses) is 52%; in data set [3] (setting [5]) it was 52%; in data set [3] (27.5 mg/kg orally for 5 doses), 62%; in data set [4] (setting [6]) it was 39%; in data set [4] (setting [7]), 82%. The tumor growth rate in data set [3] (27.5 mg/kg i.v. daily for 5 doses, 5 days after end of dosing) was 22±4 mm^3/day; in data set [3] (setting [5]), 22±8 mm^3/day; in data set [3] (27.5 mg/kg orally for 5 doses) it was 18.5±8 mm^3/day; in data set [4] (setting [6]), “about 91±24 mm^3/day”; in data set [4] (25 mg/kg i.v. daily for 5 doses, 5 days after end of dosing), 27 mm^3/day. Moreover, in data set [3] (oral, at doses that gave i.v. antitumor activity), the “antitumor activity following oral administration” value was “Significant antitumor activity was not seen”. Further, the “mice with no histologically detectable tumor on day 42” value in data set [4] (setting [7]) is given as 3 of eight. Besides, the tumor regressions result in data set [4] (in words) is “complete tumor regressions were seen in some mice”.
